Entries after “also recorded” stand apart in the source; their conditions may differ. Where two headings read alike, the source gives them in different places.
Assays:
[1] = biological target: NS3-NS5 interaction (NS3 f.l. binding to coated 6His-NS5_270–900) (Dengue virus type 2, UniProt P14340); assay: ELISA-based NS3-NS5 interaction assay; parameters: species or system DENV-2; conditions: for IC50: read-out: In vitro activity IC50
Description: Nunc Maxisorp microplates (Thermo Fisher Scientific) were coated with 400 ng/well of 6His-NS5_270–900, or GST protein as a control, in PBS for 3 h at 37 °C and then blocked with 5% (wt/v) bovine serum albumin (BSA, Merck Life Science) in PBS overnight at 4 °C. Blocked wells were incubated at room temperature (RT) for 2 h with increasing amounts of NS3 f.l. or GST–NS3_172–618. 6His-NS5_270–900-coated plates were also incubated with increasing concentration of GST, as a control. After washing with PBS containing 0.3% Tween 20 (Fisher Scientific, Waltham, MA, United States), the NS3-NS5 interaction was detected by incubating the plates with the anti-NS3 monoclonal antibody (GT2811 clone, Genetex, Irvine, CA, United States) diluted 1:6,000 in PBS + 2% (v/v) FBS (Thermo Fisher Scientific) for 1 h at RT. The unbound primary antibody was removed by further washes with PBS + 0.3% Tween 20 and the secondary goat anti-mouse HRP-conjugated antibody (GenScript Biotech) at a dilution of 1:8,000 in PBS + 2% FBS was then added. After incubation for 1 h at RT and following washes, the colorimetric substrate 3,3′,5,5′-tetramethylbenzidine (TMB, SeraCare Life Sciences, Milford, MA, United States) was added to each well and absorbance was read at 450 nm by an ELISA plate reader (Tecan Infinite 200 PRO, Mannedorf, Switzerland).
To test the inhibitory effect of compounds on NS3-NS5 interaction, 6His-NS5_270–900-coated wells were incubated with a fixed amount of NS3 f.l. (200 ng) along with increasing concentrations of test compounds or DMSO as a control. To exclude non-specific inhibition of compounds due to colloidal aggregation, the inhibitory activities of compounds were tested in the presence or the absence of 0.002% Triton X-100 (Fisher Scientific), a condition which reverses and prevents the colloidal formation of organic molecules ([McGovern et al., 2003]). All the compound concentrations were tested at least in duplicate.

DENV-2 NGC strain = assay: Plaque reduction assay (PRA) in Vero cells; type: cell-based; conditions: for EC50: PRA in Vero cells, read-out: Antiviral activity EC50; for SI (selectivity index): ratio between CC50 and EC50
DENV-1 (TH-Sman strain) = assay: Viral RNA reduction assay (RT-qPCR) in Vero cells; type: cell-based; conditions: DENV-1, Vero cells, RT-qPCR at 72 h p.i.
Description: (§1) For viral RNA reduction assays with DENV serotypes 1 to 4, Vero cells were seeded at a density of 1 × 10^5 cells per well in 24-well plates. The next day, cells were infected at 37 °C with the different viruses in serum-free DMEM at the multiplicity of infection (MOI) of 0.001 and plates were rocked every 15 min. At the end of incubation, the viral inoculum was removed, and medium with 2% FBS containing various concentrations of test compounds was added. Viral RNA was isolated from the culture supernatant at 72 h p.i., using the PureLink Viral RNA/DNA Mini kit (Invitrogen, Waltham, MA, United States), according to the manufacturer’s instructions. Viral RNA was quantified using the One-Step RT-PCR kit Dengue Virus subtypes 1, 2, 3 and 4 PCRmax (Cole Parmer Instrument, Saint Neots, United Kingdom), according to the manufacturer’s instructions, on a 7,000 Real-time PCR platform (Applied Biosystems, Waltham, MA, United States).

DENV-2 (NGC strain) = assay: Viral RNA reduction assay (RT-qPCR) in Vero cells; type: cell-based; conditions: DENV-2, Vero cells, RT-qPCR at 72 h p.i.
Description: as §1

DENV-3 (H-87 strain) = assay: Viral RNA reduction assay (RT-qPCR) in Vero cells; type: cell-based; conditions: DENV-3, Vero cells, RT-qPCR at 72 h p.i.
Description: as §1

DENV-4 (H-241 strain) = assay: Viral RNA reduction assay (RT-qPCR) in Vero cells; type: cell-based; conditions: DENV-4, Vero cells, RT-qPCR at 72 h p.i.
Description: as §1

[2] = biological target: NS5-RdRp (NHS-NS5_270–900) (Dengue virus type 2, UniProt P14340); assay: Microscale thermophoresis (MST) binding to labeled NS5-RdRp; parameters: species or system DENV-2; conditions: medium MST power, 40% LED power
Source text: (§2) To obtain the purified helicase portion of NS3 (6His-NS3_177–618) and the main protease of SARS-CoV-2 (6His-M^pro) used for the MST analysis, we followed previously described protocols ([Celegato et al., 2023]; [Mercorelli et al., 2022]). The 6His–NS5 RdRp270–900 protein was expressed and purified as described above. For MST studies, 6His-NS5_270–900, 6His-NS3_177–618, and 6His-M^pro were fluorescently labeled using NanoTemper Protein labeling kit RED-NHS 2nd generation (MO-L011, NanoTemper Technologies GmbH, Munich, Germany). Protein and dye concentrations were determined by absorption spectroscopy using NanoDrop™ One spectrophotometer (ThermoFisher Scientific), considering, at 280 nm, ε = 171,350 M^–1cm^1 for recombinant NS5, ε = 66,140 M^–1cm^1 for NS3, ε = 32,890 M^–1cm^1 for M^pro, respectively. The ε = 195,000 M^1cm^1 at 650 nm was considered for the RED-NHS fluorophore, with a correction factor of 0.04. The degree of labeling (DOL) was calculated according to the manufacturer’s instructions, yielding a value of 0.63 for NHS-NS5, 0.98 for NHS-NS3, and 0.60 for NHS-M^pro, respectively. […] In all experiments, signal quality was monitored by the Monolith device to detect possible ligand auto-fluorescence, aggregation, or target protein adsorption to capillaries. Experiments were performed in triplicates and analyzed with the MO. […]

[3] = biological target: NS3-hel (NHS-NS3_177–618) (Dengue virus type 2, UniProt P14340); assay: Microscale thermophoresis (MST) binding to labeled NS3-hel; parameters: species or system DENV-2; conditions: same test concentrations (serial dilutions from 250 μM), 60% LED power
Source text: as §2

SARS-CoV-2 M^pro = SARS-CoV-2 M^pro (Severe acute respiratory syndrome coronavirus 2, UniProt P0DTD1); conditions: MST binding check, up to 125 μM compound concentration
MTT cytotoxicity assay = conditions: African green monkey, Vero cells
Vero cells = assay: MTT cytotoxicity assay; conditions: read-out: Cytotoxicity CC50; best analogues of hit 3, in-house synthesized hit 3 as control; MTT in Vero cells at 72 h

In the case of `Cc1ccc(NC(=S)NNC(=O)c2ccccc2O)cc1` [Hit 3], the IC50 ([1]; analogues of hit 3, in-house synthesized hit 3 as control, 50% inhibition of NS3-NS5 binding in ELISA) is reported as 19.4 ± 7.8 µM, the inhibition at 100 µM ([1]; fixed concentration of 100 μM, compared with DMSO control) is reported as no less than 50% and the IC50 ([1]; selected hits, concentration that decreased the NS3-NS5 binding by 50% in ELISA) is reported as 15.6 ± 4.5 µM. The EC50 (DENV-2 NGC strain; Dengue virus, DENV2, Vero, best analogues of hit 3, in-house synthesized hit 3 as control, NGC strain) was 1.8 ± 0.6 µM, the EC50 (DENV-2 NGC strain; Dengue virus, DENV2, Vero, selected hits, 50% inhibition of viral plaque formation, DENV-2) was 1.93 µM and the “SI (selectivity index)” value (DENV-2 NGC strain; best analogues of hit 3) was greater than 130. For the same compound, the EC50 (DENV-2 NGC strain; selected hits, 50% inhibition of viral plaque formation, DENV-2) was 1.9 ± 0.3 µM, the “SI (selectivity index)” value (DENV-2 NGC strain; selected hits) was greater than 130 and the “viral RNA synthesis” value (DENV-1 (TH-Sman strain)) was “concentration-dependent reduction in viral RNA synthesis”. The “viral RNA synthesis” value (DENV-2 (NGC strain)) was “concentration-dependent reduction in viral RNA synthesis”, the “viral RNA synthesis” value (DENV-3 (H-87 strain)) was “concentration-dependent reduction in viral RNA synthesis” and the “viral RNA synthesis” value (DENV-4 (H-241 strain)) was “concentration-dependent reduction in viral RNA synthesis”. The Kd [2] was 28.8 ± 4.5 µM, the “binding to NS3-hel” value [3] was “not able to detect the binding; also recorded: no binding was observed” and the “binding to SARS-CoV-2 M^pro” value (SARS-CoV-2 M^pro) was “No binding was detected”. For the same compound, the CC50 at 72 h (MTT cytotoxicity assay) was greater than 250 µM and the CC50 (Vero cells) was greater than 250 µM.
